Key:
[1] = system: HepG2, a human hepatocarcinoma cell line; assay: Exposure of HepG2 cells to carbon tetrachloride, enzyme release into supernatant (hepatotoxicity model); format: cell-based
[2] = system: mouse ES cell-derived hepatocytes; assay: In vitro hepatotoxicity model using hepatocytes differentiated from mouse ES cells, enzyme release into supernatant; format: cell-based; conditions: pretreatment 24 hr, 25 μM; 0.6% CCl4 for 180 minutes
Procedure: Hepatocytes were differentiated from mouse ES cells and exposed to carbon tetrachloride (0.6%) for 180 minutes in the absence and presence of N-acetylcysteine (NAC), an antioxidant (25 μM). Levels of the following enzymes were determined by biochemical methods: Panel A: SGOT; Panel B: SGPT; Panel C: ALP; and Panel D: LDH.
Mouse ES cells were differentiated into hepatocytes by the formation of EBs in a medium without LIF. After 4 days in suspension, 15-20 EBs were plated onto 35 mm culture dishes pre-coated with 1% matrigel (BD Biosciences, USA), and allowed to differentiate for 20-25 days. Concentration of growth factors, cytokines (e.g., bone morphogenetic proteins (BMP2 and BMP4), hepatocyte growth factor (HGF), acidic-fibroblast growth factor (aFGF), and basic-FGF (bFGF)) and corticosteroids (e.g., dexamethasone) were optimized for hepatic differentiation. The differentiated cells obtained were confirmed to be hepatocytes by checking the positive expression of hepatic markers by RT-PCR and immunocytochemistry. […]
The cell supernatant was used for the determination of SGPT, SGOT, ALP, and LDH levels, per the manufacturer's protocol. […] The samples were analyzed using a Konelab-20i autoanalyser (Thermo Clinical Lab Systems, Finland). The levels were expressed as units/Liter.

For `ClC(Cl)(Cl)Cl` [CCl4, carbon tetrachloride], the “time of maximum release of SGOT, SGPT, ALP and LDH” value ([1]; 0.6% CCl4) was 180 min and the “SGOT, SGPT, ALP and LDH levels (enzyme release, hepatocyte damage)” value ([1]; 0.6% CCl4, exposure 30-240 minutes, cell supernatant) was “time-dependent increases”.

`CC(=O)N[C@@H](CS)C(=O)O` [N-acetylcysteine] was tested, and the “effect on CCl4-induced increase in release of SGOT, SGPT, ALP and LDH” value [2] was “effectively blocked the increase in the release of these enzymes”.

Source: US7811817B2, “Establishment of a human embryonic stem cell line using mammalian cells” (Reliance Life Sciences Pvt. Ltd., priority 2005, dated 2010)
